Values of other authors, collected in US20090239289A1, “Drain Foam Composition and Method of Using the Same” (priority 2008, published 2009).

## CC(COc1ccc(Oc2ccccc2)cc1)Oc1ccccn1 (stereo not shown) [Nylar, 2-[1-methyl-2(4-phenoxyphenoxy)ethoxy]pyridine]
  residual when used outdoors: about 30 days
